Source: ChEMBL document CHEMBL1143311, “Structure-activity relationship and studies on the molecular mechanism of leishmanicidal N,C-coupled arylisoquinolinium salts” (J Med Chem, 2009)
Each block holds one compound with its values, some of them ahead of it. Activity calls are given as the source filed them. No cut-off for these calls is given here.

Experiments:
Macrophage [1] = assay: Reduction of IL6 production in LPS-stimulated BALB/c mouse peritoneal macrophages infected with Leishmania major MHOM/IL/81/FE/BNI promastigotes at 3 uM after 24 hrs by sandwich ELISA; format: functional, cell-based
Macrophage [2] = assay: Reduction of IL6 production in IFN-gamma-stimulated BALB/c mouse peritoneal macrophages infected with Leishmania major MHOM/IL/81/FE/BNI promastigotes at 3 uM after 24 hrs by sandwich ELISA; format: functional, cell-based
Macrophage [3] = assay: Reduction of TNFalpha production in LPS-stimulated BALB/c mouse peritoneal macrophages infected with Leishmania major MHOM/IL/81/FE/BNI promastigotes at 3 uM after 24 hrs by sandwich ELISA; format: functional, cell-based
Macrophage [4] = assay: Reduction of TNFalpha production in IFN-gamma-stimulated BALB/c mouse peritoneal macrophages infected with Leishmania major MHOM/IL/81/FE/BNI promastigotes at 3 uM after 24 hrs by sandwich ELISA; format: functional, cell-based
Macrophage [5] = assay: Increase in TGFbeta secretion in IFN-gamma-stimulated BALB/c mouse peritoneal macrophages infected with Leishmania major MHOM/IL/81/FE/BNI promastigotes at 3 uM after 24 hrs by sandwich ELISA; format: functional, cell-based
Macrophage [6] = assay: Increase in TGFbeta secretion in BALB/c mouse peritoneal macrophages infected with Leishmania major MHOM/IL/81/FE/BNI promastigotes at 3 uM after 24 hrs by sandwich ELISA; format: functional, cell-based
Macrophage [7] = assay: Decrease in IL10 secretion in IFN-gamma-stimulated BALB/c mouse peritoneal macrophages infected with Leishmania major MHOM/IL/81/FE/BNI promastigotes at 3 uM after 24 hrs by sandwich ELISA; format: functional, cell-based
Macrophage [8] = assay: Decrease in IL10 secretion in LPS-stimulated BALB/c mouse peritoneal macrophages infected with Leishmania major MHOM/IL/81/FE/BNI promastigotes at 3 uM after 24 hrs by sandwich ELISA; format: functional, cell-based
Macrophage [9] = assay: Increase in nitric oxide production in LPS-stimulated BALB/c mouse peritoneal macrophages infected with Leishmania major MHOM/IL/81/FE/BNI promastigotes at 3 uM after 48 hrs by […]; format: functional, cell-based
Leishmania major [10] = assay: Antileishmanial activity against Leishmania major MHOM/IL/81/FE/BNI promastigotes by alamar blue assay; format: functional, organism-based
[11] = Antiproliferative activity against mouse J774.1 cells after 48 hrs by alamar blue assay; format: cell-based
[12] = Selectivity index, ratio of IC50 for mouse J774.1 cells to IC50 for Leishmania major MHOM/IL/81/FE/BNI promastigotes; format: toxicity; conditions: for selectivity ratio: J774.1 cells, read-out: Ratio IC50
[13] = Cytotoxicity against BALB/c mouse DC after 48 hrs by alamar blue assay
[14] = Cytotoxicity against mouse NIH/3T3 after 48 hrs by alamar blue assay; format: cell-based; conditions: NIH3T3, 48 h
[15] = Cytotoxicity against BALB/c mouse peritoneal macrophages after 48 hrs by alamar blue assay; format: cell-based; conditions: Macrophage
Leishmania major [16] = assay: Antileishmanial activity against Leishmania major MHOM/IL/81/FE/BNI promastigotes infected in BALB/c mouse peritoneal macrophages assessed as decrease in infection rate after 48 hrs by fluorescence microscopy; format: functional, organism-based
[17] = Ratio of IC50 for BALB/c mouse peritoneal macrophages to EC50 for Leishmania major MHOM/IL/81/FE/BNI promastigotes
Albumin = Albumin (Bos taurus, UniProt P02769); assay: Binding affinity to bovine serum albumin by ultrafiltration method; format: ADME; conditions: cattle; for fraction unbound: bovine serum albumin, read-out: PPB (converted)
Cytochrome P450 2D6 [18] = target: T1, Cytochrome P450 2D6 (Homo sapiens, UniProt P10635); assay: Inhibition of human CYP2D6 at 1 to 100 uM by LC/ESI-MS analysis; format: ADME
Cytochrome P450 2C9 = Cytochrome P450 2C9 (Homo sapiens, UniProt P11712); assay: Inhibition of human CYP2C9 at 100 uM by LC/ESI-MS analysis; format: ADME
Cytochrome P450 2C19 = Cytochrome P450 2C19 (Homo sapiens, UniProt P33261); assay: Inhibition of human CYP2C19 at 100 uM by LC/ESI-MS analysis; format: ADME
Cytochrome P450 3A4 = Cytochrome P450 3A4 (Homo sapiens, UniProt P08684); assay: Inhibition of human CYP3A4 at 100 uM by LC/ESI-MS analysis; format: ADME
Cytochrome P450 2D6 [19] = target: T1, Cytochrome P450 2D6; assay: Inhibition of human CYP2D6 expressed in baculovirus-infected insect cell system; format: ADME
Cytochrome P450 2D6 [20] = target: T1, Cytochrome P450 2D6; assay: Inhibition of human CYP2D6 by Lineweaver-Burke plot; format: ADME
Leishmania major [21] = assay: Antileishmanial activity against Leishmania major MHOM/IL/81/FE/BNI promastigotes infected in BALB/c mouse peritoneal macrophages assessed as decrease in infection rate after 48 hrs by fluorescence microscopy in presence of interferon-gamma; format: functional, organism-based
Macrophage [22] = assay: Increase in nitric oxide production in IFN-gamma-stimulated BALB/c mouse peritoneal macrophages infected with Leishmania major MHOM/IL/81/FE/BNI promastigotes at 3 uM after 48 hrs by […] relative to noninfected cells; format: functional
Macrophage [23] = assay: Increase in nitric oxide production in BALB/c mouse peritoneal macrophages infected with Leishmania major MHOM/IL/81/FE/BNI promastigotes at 3 uM after 48 hrs by […] relative to noninfected cells; format: functional

Sequence of Cytochrome P450 2C9 (P11712 whole entry): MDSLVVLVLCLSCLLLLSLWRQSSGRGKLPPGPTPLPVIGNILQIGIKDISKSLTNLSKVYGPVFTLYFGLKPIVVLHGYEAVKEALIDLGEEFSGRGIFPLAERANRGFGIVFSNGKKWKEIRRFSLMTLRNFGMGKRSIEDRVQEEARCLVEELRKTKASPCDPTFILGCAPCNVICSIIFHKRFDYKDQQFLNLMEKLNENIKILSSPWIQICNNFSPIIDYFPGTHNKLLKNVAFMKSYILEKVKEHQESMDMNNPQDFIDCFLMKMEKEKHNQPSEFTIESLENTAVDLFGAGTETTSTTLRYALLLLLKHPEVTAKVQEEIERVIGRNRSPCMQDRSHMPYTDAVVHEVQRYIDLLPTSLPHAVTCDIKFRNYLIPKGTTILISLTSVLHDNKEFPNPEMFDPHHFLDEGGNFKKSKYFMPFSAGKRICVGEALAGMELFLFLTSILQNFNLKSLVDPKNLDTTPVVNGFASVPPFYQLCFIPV
Sequence of Cytochrome P450 3A4 (P08684 whole entry): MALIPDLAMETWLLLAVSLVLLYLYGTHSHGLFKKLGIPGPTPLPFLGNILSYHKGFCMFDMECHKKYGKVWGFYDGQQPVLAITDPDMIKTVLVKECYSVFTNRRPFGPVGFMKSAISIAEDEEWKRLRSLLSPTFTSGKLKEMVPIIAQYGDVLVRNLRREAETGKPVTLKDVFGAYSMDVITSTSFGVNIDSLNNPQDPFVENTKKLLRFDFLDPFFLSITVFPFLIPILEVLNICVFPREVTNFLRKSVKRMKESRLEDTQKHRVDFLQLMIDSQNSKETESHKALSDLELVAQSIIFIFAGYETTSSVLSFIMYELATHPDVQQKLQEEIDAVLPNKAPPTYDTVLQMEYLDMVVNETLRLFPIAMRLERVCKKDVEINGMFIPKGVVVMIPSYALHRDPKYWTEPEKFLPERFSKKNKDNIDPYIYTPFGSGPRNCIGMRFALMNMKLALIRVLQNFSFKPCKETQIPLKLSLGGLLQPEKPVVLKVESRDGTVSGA
Sequence of Cytochrome P450 2C19 (P33261 whole entry): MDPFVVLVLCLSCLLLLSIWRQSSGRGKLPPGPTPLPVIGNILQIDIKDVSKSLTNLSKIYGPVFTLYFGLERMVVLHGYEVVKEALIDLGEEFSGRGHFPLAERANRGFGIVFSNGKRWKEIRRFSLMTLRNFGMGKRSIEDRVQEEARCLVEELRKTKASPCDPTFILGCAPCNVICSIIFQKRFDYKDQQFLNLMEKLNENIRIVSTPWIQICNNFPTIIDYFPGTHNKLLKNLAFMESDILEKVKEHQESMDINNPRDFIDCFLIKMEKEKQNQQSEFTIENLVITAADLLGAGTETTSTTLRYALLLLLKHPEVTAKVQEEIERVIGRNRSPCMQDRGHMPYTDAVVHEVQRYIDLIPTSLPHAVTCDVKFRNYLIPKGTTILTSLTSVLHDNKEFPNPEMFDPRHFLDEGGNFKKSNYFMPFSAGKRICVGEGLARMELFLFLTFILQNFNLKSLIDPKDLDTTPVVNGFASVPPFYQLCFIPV
T1 sequence (P10635 whole entry): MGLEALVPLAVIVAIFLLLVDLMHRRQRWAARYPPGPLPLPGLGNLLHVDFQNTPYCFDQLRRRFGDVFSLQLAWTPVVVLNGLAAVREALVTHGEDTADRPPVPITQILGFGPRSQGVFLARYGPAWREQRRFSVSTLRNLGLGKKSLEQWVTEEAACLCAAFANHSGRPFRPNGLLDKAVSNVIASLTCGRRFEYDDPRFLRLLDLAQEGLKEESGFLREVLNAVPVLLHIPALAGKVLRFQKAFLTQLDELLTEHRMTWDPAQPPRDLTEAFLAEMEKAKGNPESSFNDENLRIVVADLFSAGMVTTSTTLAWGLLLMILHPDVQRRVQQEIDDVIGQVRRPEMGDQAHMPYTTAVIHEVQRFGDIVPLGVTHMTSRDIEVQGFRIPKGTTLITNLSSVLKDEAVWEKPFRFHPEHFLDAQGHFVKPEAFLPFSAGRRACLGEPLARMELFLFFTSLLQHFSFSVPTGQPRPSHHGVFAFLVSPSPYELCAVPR
Sequence of Albumin (P02769 whole entry): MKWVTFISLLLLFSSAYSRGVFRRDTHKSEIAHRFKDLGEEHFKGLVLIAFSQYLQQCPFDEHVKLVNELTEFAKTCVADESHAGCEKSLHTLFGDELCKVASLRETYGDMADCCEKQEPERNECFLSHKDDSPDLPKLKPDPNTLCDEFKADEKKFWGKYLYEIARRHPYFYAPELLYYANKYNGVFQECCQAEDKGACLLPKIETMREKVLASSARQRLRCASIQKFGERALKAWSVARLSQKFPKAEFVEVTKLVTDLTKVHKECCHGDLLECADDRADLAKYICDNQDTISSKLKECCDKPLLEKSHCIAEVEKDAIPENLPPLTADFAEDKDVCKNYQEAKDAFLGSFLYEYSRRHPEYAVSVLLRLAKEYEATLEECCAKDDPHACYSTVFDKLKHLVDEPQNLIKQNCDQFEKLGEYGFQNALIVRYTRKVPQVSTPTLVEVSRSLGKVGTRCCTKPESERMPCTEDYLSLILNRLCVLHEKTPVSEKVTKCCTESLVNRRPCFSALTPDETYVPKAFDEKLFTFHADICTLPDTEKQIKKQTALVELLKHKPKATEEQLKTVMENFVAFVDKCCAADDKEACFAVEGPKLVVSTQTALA

Compound: COc1cc(OC)c2c(C)[n+](-c3cccc4ccccc34)c(C)cc2c1
Activity (Macrophage [1]): Active | Activity (Macrophage [2]): Active | Activity (Macrophage [3]): Active | Activity (Macrophage [4]): Active | Activity (Macrophage [5]): Active | Activity (Macrophage [6]): Active | Activity (Macrophage [7]): inactive | Activity (Macrophage [8]): inactive | Activity (Macrophage [9]): inactive

Compound: COc1ccc(-[n+]2c(C)cc3cc(OC)cc(OC)c3c2C)cc1
IC50 (Leishmania major [10]; Leishmania major): > 100000 nM | IC50 ([11]; Mus musculus, J774.1, 48 h): > 100000 nM

EC50 (Leishmania major [16]): 92 nM | fraction unbound (Albumin): 0.441 | Activity (Cytochrome P450 2D6 [18]): Active | Activity (Cytochrome P450 2C9): Active | Activity (Cytochrome P450 2C19): Active | Activity (Cytochrome P450 3A4): Active | IC50 (Cytochrome P450 2D6 [19]): 56.1 nM | Ki (Cytochrome P450 2D6 [20]): 28.1 nM
Compound: COc1cc(OC)c2c(C)[n+](-c3ccc(C)cc3)c(C)cc2c1.F[B-](F)(F)F
IC50 (Leishmania major [10]; Leishmania major): 2640 nM | IC50 ([11]; Mus musculus, J774.1, 48 h): 14600 nM | selectivity ratio [12]: 5.55 | IC50 [13]: 24000 nM | IC50 [14]: 49800 nM | IC50 [15]: 12800 nM | Ratio IC50/EC50 [17]: 138 | Activity (Macrophage [1]): Active | Activity (Macrophage [2]): Active | Activity (Macrophage [3]): Active | Activity (Macrophage [4]): Active | Activity (Macrophage [7]): inactive | Activity (Macrophage [8]): inactive | Activity (Macrophage [9]): inactive | Activity (Leishmania major [21]): Active

Activity (Albumin; isolated protein): Active | Activity (Cytochrome P450 2D6 [18]): Active | Activity (Cytochrome P450 2C9): Active | Activity (Cytochrome P450 2C19): Active | Activity (Cytochrome P450 3A4): Active | IC50 (Cytochrome P450 2D6 [19]): 900 nM | Ki (Cytochrome P450 2D6 [20]): 450 nM
Compound: COc1cc(OC)c2c(C)[n+](-c3cccc4ccccc34)c(C)cc2c1.[O-][Cl+3]([O-])([O-])[O-]

EC50 (Leishmania major [16]): 158 nM | fraction unbound (Albumin): 0.297 | Activity (Cytochrome P450 2D6 [18]): Active | Activity (Cytochrome P450 2C9): Not Active | Activity (Cytochrome P450 2C19): Not Active | Activity (Cytochrome P450 3A4): Not Active | IC50 (Cytochrome P450 2D6 [19]): 109 nM | Ki (Cytochrome P450 2D6 [20]): 54.7 nM
Compound: COc1cc(OC)c2c(C)[n+](-c3ccc(C(C)C)cc3)c(C)cc2c1.O=C([O-])C(F)(F)F
IC50 (Leishmania major [10]; Leishmania major): 2000 nM | IC50 ([11]; Mus musculus, J774.1, 48 h): 13100 nM | selectivity ratio [12]: 6.55 | IC50 [13]: 7600 nM | IC50 [14]: 11100 nM | IC50 [15]: 8810 nM | Ratio IC50/EC50 [17]: 56 | Activity (Macrophage [1]): Active | Activity (Macrophage [2]): Active | Activity (Macrophage [4]): Active | Activity (Macrophage [5]): Active | Activity (Macrophage [6]): Active | Activity (Macrophage [7]): Active | Activity (Macrophage [8]): Active | Activity (Macrophage [9]): inactive | fold change (FC) (Macrophage [22]): 3 | fold change (FC) (Macrophage [23]): 2.7 | Activity (Leishmania major [21]): Active

fraction unbound (Albumin): 0.416
Compound: COc1cc(OC)c2c(C)[n+](-c3ccc(C(C)C)cc3C(C)C)c(C)cc2c1
IC50 (Leishmania major [10]; Leishmania major): 540 nM | IC50 ([11]; Mus musculus, J774.1, 48 h): 2250 nM | selectivity ratio [12]: 4.17

Compound: COc1cc(OC)c2c(C)[n+](-c3ccc4ccccc4c3)c(C)cc2c1
IC50 (Leishmania major [10]; Leishmania major): 3370 nM | IC50 ([11]; Mus musculus, J774.1, 48 h): 8130 nM | selectivity ratio [12]: 2.41

Compound: COc1cc(OC)c2c(C)[n+](-c3ccc4cc5ccccc5cc4c3)c(C)cc2c1
IC50 (Leishmania major [10]; Leishmania major): 670 nM | IC50 ([11]; Mus musculus, J774.1, 48 h): 230 nM | selectivity ratio [12]: < 1

Compound: CCCc1ccc(-[n+]2c(C)cc3cc(OC)cc(OC)c3c2C)cc1
IC50 (Leishmania major [10]; Leishmania major): 1630 nM | IC50 ([11]; Mus musculus, J774.1, 48 h): 5360 nM | selectivity ratio [12]: 1.14

Compound: COc1cc(OC)c2c(C)[n+](-c3ccc(Cl)cc3)c(C)cc2c1
IC50 (Leishmania major [10]; Leishmania major): 18900 nM | IC50 ([11]; Mus musculus, J774.1, 48 h): 3050 nM | selectivity ratio [12]: < 1

Compound: COc1cc(OC)c2c(C)[n+](-c3cccc4cc5ccccc5cc34)c(C)cc2c1.F[B-](F)(F)F
IC50 (Leishmania major [10]): 720 nM | IC50 ([11]; j774.1): 2950 nM | Ratio IC50 [12]: < 1

fraction unbound (Albumin): 0.671
Compound: COc1cc(OC)c2c(C)[n+](-c3ccc4scnc4c3)c(C)cc2c1
IC50 (Leishmania major [10]; Leishmania major): > 100000 nM | IC50 ([11]; Mus musculus, J774.1, 48 h): 63200 nM

Compound: COc1cc(OC)c2c(C)[n+](-c3c(C)cc(C)cc3C)c(C)cc2c1
IC50 (Leishmania major [10]; Leishmania major): 1490 nM | IC50 ([11]; Mus musculus, J774.1, 48 h): 4200 nM | selectivity ratio [12]: 2.82

Compound: COc1cc(OC)c2c(C)[n+](-c3cccc4c3C(=O)c3ccccc3C4=O)c(C)cc2c1
IC50 (Leishmania major [10]; Leishmania major): > 100000 nM | IC50 ([11]; Mus musculus, J774.1, 48 h): > 100000 nM

Compound: COc1cc(OC)c2c(C)[n+](-c3cccc4cc5ccccc5cc34)c(C)cc2c1
IC50 (Leishmania major [10]): 1850 nM | IC50 ([11]; Mus musculus, J774.1, 48 h): 1690 nM | selectivity ratio [12]: < 1

Compound: COc1cc(OC)c2c(C)[n+](-c3ccc4ncccc4c3)c(C)cc2c1
IC50 (Leishmania major [10]; Leishmania major): > 100000 nM | IC50 ([11]; Mus musculus, J774.1, 48 h): > 100000 nM
